One assay relates to Kato3. Nature of the assay: Cytotoxicity against human Kato3 cells at 50 umol/L. In kind it is functional, cell-based.
In assay [1] the test system is MCF7. As to the kind of experiment: Cytotoxicity against human MCF7 cells at 50 umol/L. In kind it is functional, cell-based.
Another assay has as its system HMO2. Nature of the assay: Cytotoxicity against human HMO2 cells at 50 umol/L. In kind it is functional, cell-based.
Assay [2] deals with MCF7. As to the kind of experiment: Cytotoxicity against human MCF7 cells. In kind it is functional.
Assay [3] in a line: Cytotoxicity against human Kato3 cells. In kind it is functional.
A further assay concerns HepG2. As to the kind of experiment: Cytotoxicity against human HepG2 cells. In kind it is functional.
Assay [4] in a line: Cytotoxicity against human HMO2 cells. In kind it is functional.

Active and inactive are the calls of the source. No cut-off for these calls is given here. Some results are limits rather than exact numbers.

As to `C/C=C/C=C/C1=CC(=O)CCN1`, the outcome in the assay with Kato3, with MCF7 [1] and in the assay on HMO2 was inactive.

For `C/C=C1\C(=O)C=C2NCCC=C21`, the outcome in the assay on Kato3, in the assay with MCF7 [1] and in the assay with HMO2 was inactive.

As to `C/C=C1\C(=O)C=C2NCCC3OC213` (stereo not given) [STREPTAZONE A], the GI50 in the assay on MCF7 [2] was 15000 nM; in assay [3], 600 nM; in the assay with HepG2 it was less than 100 nM; in assay [4] it was 500 nM. Further, the TGI in the assay with MCF7 [2] was 50000 nM; in assay [3] it was 1000 nM; with HepG2, 2500 nM; in assay [4] it was 50000 nM.

As for `C/C=C1\C=CC2=C1C(=O)CCN2`, the result with Kato3, in the assay with MCF7 [1] and in the assay with HMO2 was inactive.

Turning to `C/C=C1/C2=CCCN3C(=O)O[C@H]([C@H]1O)[C@H]23`, the result in the assay on Kato3, in the assay with MCF7 [1] and with HMO2 was inactive.

The GI50 is the concentration giving 50% growth inhibition. Lower therefore signals more potent growth inhibition. The TGI is the concentration giving total growth inhibition. Read a high TGI as lower sensitivity of the cells.

(Values after ChEMBL document CHEMBL1155586, “Streptazones A, B(1), B(2), C, and D: new piperidine alkaloids from streptomycetes” (2000).)
